For this experiment, the target named is T1, D-ketohexose 3-epimerase (Pseudomonas cichorii, UniProt O50580).
T1 construct: The cells which had been recovered from 80 liters of the resultant culture were crushed by grinding; made in house; host or cells: Pseudomonas cichorii ST-24 (FERM BP-2736), the natural producer; not recombinant
The experiment in a line: Relative enzyme activity of purified D-ketohexose 3-epimerase on L-ketohexose substrates. The format is biochemical, Pseudomonas cichorii ST-24. The conditions noted are these: substrate in 0.1 M solution (pH 7.5), 11 units/g substrate of enzyme, 30° C., 24 hours; D-tagatose as control regarded as 100. As to the method: D-Ketohexose 3-epimerase was studied for relative enzyme activity on various L-ketohexoses. A purified D-ketohexose 3-epimerase obtained by the method in Example 1 was allowed to act on four different types of L-ketohexoses as substrates, i.e. L-psicose, L-fructose, L-sorbose and L-tagatose, to determine the enzyme activity on them. The reaction conditions were as follows: To either substrate in 0.1 M solution (pH 7.5) was added 11 units/g substrate of the enzyme and reacted at 30° C. for 24 hours. As a control, D-tagatose was used as substrate and the relative enzyme activity was regarded as 100.
The enzyme specimen thus obtained was assayed as follows: The reaction solution used in this assay consisted of 100 microliters of 50 mM Tris-HCl buffer (pH 7.5), 50 microliters 40 mM D-tagatose and 50 microliters of an enzyme solution. The enzymatic reaction was carried out at 30° C. for 60 minutes, and the formed D-sorbose was quantified on HPLC. One unit activity of the enzyme was defined as the amount of enzyme that epimerizes one micromol of D-tagatose into D-sorbose per minute.
Consider `O=C(CO)[C@@H](O)[C@@H](O)[C@@H](O)CO` [L-Psicose], for which the Relative enzyme activity result is “about 20”.

For `O=C(CO)[C@H](O)[C@H](O)[C@@H](O)CO` [L-Tagatose], the Relative enzyme activity entry was “about 0.5”.

As to `O=C(CO)[C@@H](O)[C@H](O)[C@@H](O)CO` [L-Sorbose], the Relative enzyme activity entry is given as “about 2”.

Regarding `O=C(CO)[C@H](O)[C@@H](O)[C@@H](O)CO` [L-Fructose], the Relative enzyme activity result was “about 5”.

For the molecule `O=C(CO)[C@@H](O)[C@@H](O)[C@H](O)CO` [D-Tagatose, reference compound], the Relative enzyme activity stood at 100.

Source of the values: patent publication US5811271A, “Process for producing L-ketohexose” (Kabushiki Kaisha Hayashibara Seibutsu Kagaku Kenkyujo, priority 1994, dated 1998).
